Experimental data reported in PubChem BioAssay (NCI).
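Compound exposure: 48 hours, 5 concentrations, 96-well plates. GI50: concentration for 50% inhibition of growth. TGI denotes the concentration required for complete inhibition of growth.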

Columns and labels:
Assay in all cases: DTP human tumour cell line panel, 48 h
A549 NSCLC = system: A549 NSCLC
LOX IMVI melanoma = system: LOX IMVI melanoma
SN12C renal = system: SN12C renal
COLO 205 colon = system: COLO 205 colon
U251 CNS = system: U251 CNS
SR leukemia = system: SR leukemia
UACC-257 melanoma = system: UACC-257 melanoma
DU-145 prostate = system: DU-145 prostate
NCI/ADR-RES ovarian = system: NCI/ADR-RES ovarian
HS 578T breast = system: HS 578T breast
BT-549 breast = system: BT-549 breast
RPMI-8226 leukemia = system: RPMI-8226 leukemia
MCF7 breast = system: MCF7 breast
HOP-62 NSCLC = system: HOP-62 NSCLC
MDA-N = system: MDA-N

| SMILES | TGI (A549 NSCLC) | TGI (LOX IMVI melanoma) | TGI (SN12C renal) | TGI (COLO 205 colon) | TGI (U251 CNS) | TGI (SR leukemia) | TGI (UACC-257 melanoma) | GI50 (SN12C renal) | GI50 (DU-145 prostate) | TGI (DU-145 prostate) | GI50 (SR leukemia) | GI50 (NCI/ADR-RES ovarian) | TGI (NCI/ADR-RES ovarian) | TGI (HS 578T breast) | TGI (BT-549 breast) | TGI (RPMI-8226 leukemia) | TGI (MCF7 breast) | TGI (HOP-62 NSCLC) | TGI (MDA-N) |
| --- | --- | --- | --- | --- | --- | --- | --- | --- | --- | --- | --- | --- | --- | --- | --- | --- | --- | --- | --- |
| CCCCCCCCCC/C=C/C=O | > 100 µM | > 100 µM | > 100 µM | > 100 µM | > 100 µM | > 100 µM | > 100 µM |  |  |  |  |  |  |  |  |  |  |  |  |
| NCCCn1c2c(c3ccc([N+](=O)[O-])cc3c1=O)C(=O)c1cc(F)ccc1-2 |  |  | 0.805 µM |  |  | 0.0205 µM |  | 0.0439 µM | < 0.0104 µM | 0.451 µM | < 0.01 µM | 0.0412 µM | 1.2 µM |  |  |  |  |  |  |
| Cc1cc(C)c(NC(=O)/C=C/c2ccccc2)c(C)c1 | > 100 µM |  |  |  | > 100 µM | > 100 µM | > 100 µM |  |  |  |  |  | > 100 µM | > 100 µM | > 100 µM | > 100 µM | > 100 µM | > 100 µM |  |
| CN1C(=O)CN2C(Cl)(Cl)C2(c2ccccc2)c2cc(Cl)ccc21 (stereo unspecified) |  | > 100 µM | > 100 µM | > 100 µM | > 100 µM |  | > 100 µM |  |  |  |  |  |  |  |  | > 100 µM |  | > 100 µM |  |
| O=C1/C(=C/c2ccc(Cl)cc2)N=C(c2ccccc2)N1/N=C/c1ccccc1O | 81.6 µM | 31.4 µM | > 100 µM | > 100 µM | 18.6 µM |  | > 100 µM |  |  | > 100 µM |  |  | 97.6 µM | 92.8 µM | 39.6 µM | 24.8 µM | > 100 µM | 5.21 µM | > 100 µM |
| NC(Cc1ccccc1)c1nn[nH]n1 (stereo unspecified) | > 100 µM | > 100 µM | > 100 µM | > 100 µM | > 100 µM | > 100 µM | > 100 µM |  |  | > 100 µM |  |  | > 100 µM | > 100 µM | > 100 µM | > 100 µM | > 100 µM | > 100 µM | > 100 µM |
| C#C[C@]1(O)[C@@H](CO)O[C@@H](n2ccc(N)nc2=O)[C@@H]1O | > 100 µM | 0.0945 µM |  | 0.203 µM |  |  | 8.03 µM |  |  | 6.22 µM |  |  |  | > 40 µM | 22.2 µM | 0.192 µM | > 100 µM |  | 0.175 µM |
